We go through one molecule from patent US8101740B2, “Positron emission tomography probes for imaging immune activation and selected cancers” (The Regents of the University of California, priority 2007, dated 2012).

In test [1] the test system is T lymphocytes from pmel-1 T cell receptor (TCR) transgenic mice. The test can be described thus: retention of ^3H-labeled nucleoside analogs in naïve and proliferating primary T cells. It is filed as cell-based, mouse. Here is the method:
In order to identify candidates for PET probes that can distinguish between activated T cells and non-activated, naïve T cells, we conducted a radioactive uptake assay, the results of which are shown in FIG. 1. […] These measurements were performed after incubating cells with radioactive compounds for 1 hr and performing successive washes to remove unincorporated probes. […] For example, we identified compounds #1 through #15 (see FIG. 2A for chemical structures) as PET probe candidates useful for detecting activated T cells. FIG. 2A presents substrates of dCK labeled with the ^18F positron emitting radioisotope.
T lymphocytes from pmel-1 T cell receptor (TCR) transgenic mice were stimulated ex vivo using a melanoma antigen (1 micromolar hgp 10025-33). These cells were then cultured for radioactive uptake and kinase assays that were performed 72 hours post-stimulation. […] The plate was then washed 5 times with media containing 5% fetal calf serum (FCS) by using the Millipore Vacuum Manifold (Billerica, Mass.); the amount of incorporated probe was measured by scintillation counting using the PerkinElmer Microbeta (Waltham, Mass.). […]
FIG. 1 identifies fluorinated deoxycytidine analogs retained in activated versus naive T lymphocytes and incorporated into DNA. […] Following successive washes, intracellular radioactivity was measured by scintillation counting. […]

For test [2], the system named is NIH3T3 fibroblasts engineered to overexpress nucleoside kinases (dCK) and the nucleoside transporter SLC29A1. The test can be described thus: [^3H]D-FAC uptake in engineered NIH3T3 fibroblasts. It counts as cell-based.
In test [3] the test system is L1210 murine leukemia cells (dCK^+). The test can be described thus: radioactive tracer uptake assay, L1210 parental cells. It counts as cell-based. An excerpt:
(§1) To evaluate whether [^18F]D-FAC PET can determine resistance to gemcitabine and Ara-C, we used a previously described experimental model based on the L1210 murine leukemia cells and their gemcitabine/Ara-C resistant 10K derivatives^20. The molecular defect responsible for resistance in the L1210 10K cells is loss of dCK expression due to a genetic modification of chromosome 5 in the 3′ region of the dCK gene. The 10K cell line was derived by exposing the parental L1210 cells to increasing concentrations of gemcitabine^20; before experiments, we confirmed that L1210 10K cells lack expression of dCK at the protein level (FIG. 13). Thus, to determine whether D-FAC retention correlates with gemcitabine resistance in these cells, we performed radioactive tracer uptake assays using [^3H]D-FAC with [^3H]-FLT used as a negative control. We observed that the gemcitabine-resistant L1210-10K cell line retained much lower amounts of [^3H]D-FAC in contrast to the gemcitabine-sensitive L1210 parental cell line (FIG. 14A). In fact, [^3H]D-FAC uptake was 40-fold higher in dCK^+ cells compared to cells lacking dCK activity (dCK^+=1288 fmols/1×10^5 cells; dCK-=34 fmols/1×10^5 cells; p<0.001). In contrast, [^3H]FLT uptake was indistinguishable between these cell lines. FIG. 14B presents a [^3H]D-FAC kinase assay with the L1210 cell lines using [^3H]D-FAC as a substrate (1 microgram protein/reaction). In dCK positive cells shown in FIG. 14B, D-FAC phosphorylation was 52-fold higher than in dCK deficient cells (dCK^+=62 fmols; dCK^−=1.2 fmols; p=0.028). Reintroduction of dCK into the L1210-10K cells restored [^18F]D-FAC uptake and phosphorylation (FIG. 14), thus further confirming the critical role of this nucleoside kinase in regulating D-FAC metabolism.
(§2) Each cell type was incubated separately with each of the following: [^18F]L-FAC, and [^18F]-CA, and the positive control [^18F]D-FAC. The cells were incubated with [^18F]L-FAC, [^18F]-CA, and [^18F]D-FAC for 1 hour. Following successive washes, intracellular radioactivity was measured by scintillation counting to obtain the result shown in FIG. 17A.

Test [4] deals with L1210-10K cell line (lacking dCK). The test can be described thus: radioactive tracer uptake assay, L1210-10K cells. It is filed as cell-based, murine. An excerpt: To evaluate whether [^18F]D-FAC PET can determine resistance to gemcitabine and Ara-C, we used a previously described experimental model based on the L1210 murine leukemia cells and their gemcitabine/Ara-C resistant 10K derivatives^20. The molecular defect responsible for resistance in the L1210 10K cells is loss of dCK expression due to a genetic modification of chromosome 5 in the 3′ region of the dCK gene. The 10K cell line was derived by exposing the parental L1210 cells to increasing concentrations of gemcitabine^20; before experiments, we confirmed that L1210 10K cells lack expression of dCK at the protein level (FIG. 13). Thus, to determine whether D-FAC retention correlates with gemcitabine resistance in these cells, we performed radioactive tracer uptake assays using [^3H]D-FAC with [^3H]-FLT used as a negative control. We observed that the gemcitabine-resistant L1210-10K cell line retained much lower amounts of [^3H]D-FAC in contrast to the gemcitabine-sensitive L1210 parental cell line (FIG. 14A). […]
Each cell type was incubated separately with each of the following: [^18F]L-FAC, and [^18F]-CA, and the positive control [^18F]D-FAC. […] Following successive washes, intracellular radioactivity was measured by scintillation counting to obtain the result shown in FIG. 17A.

Test [5] has as its target T1, deoxycytidine kinase (dCK) (Mus musculus, UniProt P43346).
T1 construct: endogenous in cells; host or cells: L1210 murine leukemia cells (wild type), whole-cell lysate; L1210-10K (dCK-deficient) as negative control
The test is described as follows: kinase assay with L1210 cell line lysates. It is filed as biochemical, murine.
Text: as §1, §2
(§3) Lysates from L1210 wildtype (WT) and dCK deficient (10K) cells were incubated for 20 minutes with [^18F]L-FMAC; phosphorylated products were measured by scintillation counting.

Test [6] deals with deoxycytidine kinase (dCK). The test can be described thus: kinase assay with L1210 cell line lysates. Particulars: dCK^− cells; 1 microgram protein/reaction. It counts as biochemical, murine.
Text: as §1, §2, §3

T1 sequence (P43346 whole entry): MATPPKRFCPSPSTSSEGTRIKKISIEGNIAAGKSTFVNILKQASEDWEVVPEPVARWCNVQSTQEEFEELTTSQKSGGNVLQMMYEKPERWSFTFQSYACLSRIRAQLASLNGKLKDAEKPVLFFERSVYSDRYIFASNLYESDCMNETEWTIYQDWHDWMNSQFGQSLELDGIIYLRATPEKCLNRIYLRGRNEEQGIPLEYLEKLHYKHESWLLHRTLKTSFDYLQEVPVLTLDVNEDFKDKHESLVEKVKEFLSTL

Turning to `Nc1ccn(C2O[C@H](CO)[C@@H](O)[C@@H]2F)c(=O)n1` (stereo partly drawn) [[^3H]D-FAC, 1-(2′-deoxy-2′-fluoro-arabinofuranosyl) cytosine], in test [1], the “incorporation into DNA of proliferating T cells” value is “incorporated in the DNA”. For the same molecule, the “uptake in cells overexpressing dCK and SLC29A1” value in test [2] is on record as “increased uptake”. Further, the uptake in test [3] (dCK^+ cells) worked out at 1288 fmols/1×10^5 cells; in test [4], 34 fmols/1×10^5 cells. Further, in test [3] (p<0.001), the “uptake in dCK^+ cells compared to cells lacking dCK activity” value came to 40 fold. Besides, the phosphorylation was determined as 62 fmols in test [5] (dCK^+ cells, 1 microgram protein/reaction) and 1.2 fmols in test [6]. In addition, in test [5] (p=0.028), the “phosphorylation in dCK positive cells versus dCK deficient cells” value is 52 fold.
